Experimental data: patent publication US12298319B2, “Method for measuring alpha value of muscarinic M1 receptor positive allosteric modulators” (Takeda Pharmaceutical Company Limited, priority 2017, dated 2025)

What was measured:
M2R = molecular target: T1, M2R (Homo sapiens, UniProt P08172); assay: Ca2+ flux PAM activity against other muscarinic receptor subtypes, M2R; format: cell-based; details: in the presence of EC20 ACh; read-out: PAM activity against other muscarinic receptor subtypes M2R pIP
T1 sequence (P08172 1-466): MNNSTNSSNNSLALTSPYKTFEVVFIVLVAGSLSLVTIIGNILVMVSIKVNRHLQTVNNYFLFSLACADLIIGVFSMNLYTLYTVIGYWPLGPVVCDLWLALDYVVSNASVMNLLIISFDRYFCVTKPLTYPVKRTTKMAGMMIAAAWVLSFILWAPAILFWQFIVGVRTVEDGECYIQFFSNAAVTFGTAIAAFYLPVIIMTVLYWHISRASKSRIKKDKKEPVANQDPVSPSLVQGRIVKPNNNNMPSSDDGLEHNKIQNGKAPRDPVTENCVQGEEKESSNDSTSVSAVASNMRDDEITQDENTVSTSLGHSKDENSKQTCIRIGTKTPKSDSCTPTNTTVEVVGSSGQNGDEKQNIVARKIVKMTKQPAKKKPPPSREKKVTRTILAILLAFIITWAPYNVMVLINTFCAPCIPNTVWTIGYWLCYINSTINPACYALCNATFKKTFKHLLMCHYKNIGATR

isolated mouse ileum = assay: In vitro Magnus assay, EFS-induced ileum contraction; details: for Ileum contraction at 1 μM (% of cont.) Mean: isolated mouse ileum with EFS
Procedure: After overnight fasting, mice were sacrificed by decapitation. The ileum was quickly dissected out and suspended in ice-cold Krebs solution with the following composition (in mM): NaCl, 120.7; KCl, 5.9; CaCl2, 2.5; MgCl2, 1.2; […], 15.5; NaH2PO4, 1.2; and glucose, 11.5. Longitudinal segments of ileum (10-15 mm long) were detached of mesentery and adipose tissue, and mounted in organ baths containing 10 mL of Krebs solution aerated with 95% O2/5% CO2. Bath temperature was maintained at 37° C. The isolated ileum was given a passive load of 0.5 g. The contractile response of the isolated ileum was continuously recorded with isometric transducer (MLT050/A, ADInstruments, New South Wales, Australia) and recorder (PowerLab 8/30 ML870 and Octal Bridge Amp ML228, ADInstruments).
Platinum electrodes (3-20 mm apart, Iwashiya Kishimoto Medical Instruments, Kyoto, Japan) were mounted on both sides of the isolated ileum. The electrodes were connected to an electric stimulator (SEG-3104, Nihon Kohden, Tokyo, Japan) and an amplifier (SIG-3140, Nihon Kohden) for EFS with square wave pulses (20 V over the electrodes, 50 ms duration, and 20 Hz frequency); pulse trains were lasting for 10 s with 20 s pause.
The EFS produced sustained tonic contraction, followed by relaxation. The contraction was measured as the maximum strength from the baseline. The effects of experimental substances on the maximum contraction were measured. At the beginning of each experiment, a series of control EFS cycles was tested for more than 1 h to observe stability of contractile response. The ileum with a steady contractile response elicited by control EFS during the 1 h was used to investigate the effect of test compounds.
After responses to control EFS reached a steady-state, the compounds were added to the Magnus bath cumulatively, without washing between the subsequent doses. The interval between two adjacent doses was always at least 5 min, thus the isolated preparations receive at least 10 pulses in each dose of the compounds. After cumulating all doses of compounds, the bath was washed three times, and the ilea were allowed to rest for further 30 min. The effect of each concentration of the compounds on ileum contraction induced by EFS was calculated from the average value of 10 responses of the maximum strength. Then the ileum contractile response was expressed as a ratio (%) of the mean maximum contraction to that obtained with the pre-treated DMSO (solvent) to obtain concentration-response curve. Due to very small size of relaxations, the effects of the compounds on them was not be analyzed.

human M1R = molecular target: T2, human M1R (Homo sapiens, UniProt P11229); assay: Binding modulation assay, displacement of [3H]-pirenzepine by ACh, FreeStyle 293 cell membranes; design: expressed in transfected cells; host or cells: FreeStyle 293 cells (transient), cell membranes; details: for Kb: affinity of the PAM to the free M1R, read-out: pKB Mean (converted); for log α Mean / α-value: binding cooperativity between ACh and PAM
T2 sequence (P11229 1-460): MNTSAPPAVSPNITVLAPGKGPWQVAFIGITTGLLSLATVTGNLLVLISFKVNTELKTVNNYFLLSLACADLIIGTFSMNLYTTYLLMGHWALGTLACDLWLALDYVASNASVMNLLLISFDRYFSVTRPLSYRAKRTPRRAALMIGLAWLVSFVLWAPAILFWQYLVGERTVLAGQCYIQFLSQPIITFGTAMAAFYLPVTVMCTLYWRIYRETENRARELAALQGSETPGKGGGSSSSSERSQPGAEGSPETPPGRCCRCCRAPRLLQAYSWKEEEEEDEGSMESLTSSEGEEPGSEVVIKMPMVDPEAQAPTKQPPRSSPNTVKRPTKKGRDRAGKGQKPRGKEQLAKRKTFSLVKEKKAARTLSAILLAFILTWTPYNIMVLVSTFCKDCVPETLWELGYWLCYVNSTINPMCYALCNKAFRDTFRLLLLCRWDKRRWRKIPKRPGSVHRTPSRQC
Procedure: Binding assay was performed in 96-well plate format. Cell membranes from FreeStyle 293 cells transiently expressed human M1R were incubated with test compounds, ACh and 4 nM [^3H]-pirenzepine in an assay buffer (20 mM HEPES, 100 mM NaCl, 10 mM MgCl2, 0.1% fatty acid free BSA). After 2 h incubation at room temperature, cell membranes were transferred to GF/C filter plates (PerkinElmer, Massachusetts, USA) using cell-harvester (PerkinElmer) and washed 5 times with 300 μL of 50 mM Tris-HCl. Then, GF/C plates were dried at 42° C. 25 μL of microscint 0 (PerkinElmer) was added and the radioactivity was measured by Topcount (PerkinElmer). Non-specific bound was defined in the presence of 10 μM atropine.
All data were analyzed using GraphPad Prism 5 software (GraphPad Software Inc., California, USA). Radioligand binding data were globally fitted to the following allosteric ternary complex model:
[formula] where Y is the percentage of specific binding; [A], [B], and [C] are the concentrations of ACh, the allosteric modulator, and [^3H]-pirenzepine, respectively; KA, KB, and KC denote the equilibrium dissociation constants of ACh, the allosteric modulator, and [^3H]-pirenzepine, respectively; and αAB and […] are the cooperativities between the allosteric modulator and ACh or [^3H]-pirenzepine, respectively. […] The functional interactions between M1 PAMs and ACh were globally fitted to the following operational model of allosterism (Nat Rev Drug Discov. 2009; 8(1): 41-54 and Trends Pharmacol Sci. 2007; 28(8): 382-9)

Cn1ccc(-c2ccc(CN3Cc4cccc(O[C@H]5CCCC[C@@H]5O)c4C3=O)cc2)n1 [Compound A, 7-(((1S,2S)-2-hydroxycyclohexyl)oxy)-2-(4-(1-methyl-1H-pyrazol-3-yl)benzyl)isoindolin-1-one] was tested, and the EC50 (M2R) was over 10 µM, the “augmentation of EFS-induced ileum contraction” value (isolated mouse ileum; 0.1 nM-1 μM) was “concentration-dependent augmentation” and the “Ileum contraction at 1 μM (% of cont.) Mean” value (isolated mouse ileum) was 116 % of cont. The “augmentation of EFS-induced ileum contraction with telenzepine” value (isolated mouse ileum; with 1 nM of telenzepine) was “suppressed”, the Kb (human M1R) was 26.3 µM and the “log α Mean” value (human M1R) was 3.30. The α-value (human M1R) was 2371.
Cn1cc(-c2ccc(CN3Cc4cccc(Oc5c(F)cccc5C#N)c4C3=O)cc2)cn1 [Compound B, 3-fluoro-2-((2-(4-(1-methyl-1H-pyrazol-4-yl)benzyl)-3-oxo-2,3-dihydro-1H-isoindol-4-yl)oxy)benzonitrile] was tested, and the EC50 (M2R) was over 10 µM, the “Ileum contraction at 1 μM (% of cont.) Mean” value (isolated mouse ileum) was 97 % of cont and the “effect on EFS-induced ileum contraction” value (isolated mouse ileum; up to 1 μM) was “no effect”. For the same molecule, the Kb (human M1R) was 0.977 µM, the “log α Mean” value (human M1R) was 1.18 and the α-value (human M1R) was 16.
Cn1cc(-c2ccc(Cc3cc4c(=O)n([C@H]5CCCC[C@@H]5O)cnc4c4ccccc34)cn2)cn1 [Compound C, 3-((1S,2S)-2-hydroxycyclohexyl)-6-((6-(1-methyl-1H-pyrazol-4-yl)pyridin-3-yl)methyl)benzo[h]quinazoline-4(3H)-one, reference compound] was tested, and the EC50 (M2R) was over 10 µM, the “Ileum contraction at 1 μM (% of cont.) Mean” value (isolated mouse ileum) was 104 % of cont and the Kb (human M1R) was 0.288 µM. The “log α Mean” value (human M1R) was 3.25 and the α-value (human M1R) was 1786.
Cc1c(Cc2ccc(-n3cccn3)cc2)cc2c(c1F)CN([C@H]1COCC[C@@H]1O)C2=O [Compound D, 4-fluoro-2-[(3S,4S)-4-hydroxytetrahydro-2H-pyran-3-yl]-5-methyl-6-[4-(1H-pyrazol-1-yl)benzyl]-2,3-dihydro-1H-isoindol-1-one] showed a α-value (human M1R) of 199.
For O=c1c2cn(Cc3ccc(-n4cccn4)cc3)c3ccccc3c-2nn1-c1ccccc1F [Compound E, 2-(2-fluorophenyl)-5-(4-(1H-pyrazol-1-yl)benzyl)-2,5-dihydro-3H-pyrazolo[4,3-c]quinolin-3-one, reference compound], the EC50 (M2R) was over 10 µM, the “Ileum contraction at 1 μM (% of cont.) Mean” value (isolated mouse ileum) was 106 % of cont and the Kb (human M1R) was 3.09 µM. For the same molecule, the “log α Mean” value (human M1R) was 2.67.
In the case of Cn1cc(-c2ccc(CN3Cc4cccc(OCCN5CCCCC5)c4C3=O)cc2)cn1 [Compound F, 2-(4-(1-methyl-1H-pyrazol-4-yl)benzyl)-7-(2-(piperidin-1-yl)ethoxy)isoindolin-1-one], the EC50 (M2R) is reported as over 10 µM, the “Ileum contraction at 1 μM (% of cont.) Mean” value (isolated mouse ileum) is reported as 102 % of cont and the Kb (human M1R) is reported as 9.12 µM. For the same molecule, the “log α Mean” value (human M1R) was 1.54.
For Cn1cc(-c2ccc(CN3Cc4cccc(-c5ccn[nH]5)c4C3=O)cc2)cn1 [Compound G, 2-(4-(1-methyl-1H-pyrazol-4-yl)benzyl)-7-(1H-pyrazol-5-yl)isoindolin-1-one], the EC50 (M2R) was over 10 µM, the “Ileum contraction at 1 μM (% of cont.) Mean” value (isolated mouse ileum) was 93 % of cont and the Kb (human M1R) was 14.8 µM. The “log α Mean” value (human M1R) was 0.56.
